From patent publication US8193191B2, “Urotensin II receptor antagonists” (Janssen Pharmaceutica N.V., priority 2006, dated 2012)
Where two headings read alike, the source gives them in different places.

Experiments:
[1] = target: T1, rat GPR14 (U-II receptor) (Rattus norvegicus, UniProt P49684); assay: Rat UII Calcium Mobilization FLIPR Assay; format: cell-based; settings: average value for the compound tested; read-out: Rat UII FLIPR Average IC50
T1 construct: expressed in transfected cells
T1 sequence (P49684 1-386): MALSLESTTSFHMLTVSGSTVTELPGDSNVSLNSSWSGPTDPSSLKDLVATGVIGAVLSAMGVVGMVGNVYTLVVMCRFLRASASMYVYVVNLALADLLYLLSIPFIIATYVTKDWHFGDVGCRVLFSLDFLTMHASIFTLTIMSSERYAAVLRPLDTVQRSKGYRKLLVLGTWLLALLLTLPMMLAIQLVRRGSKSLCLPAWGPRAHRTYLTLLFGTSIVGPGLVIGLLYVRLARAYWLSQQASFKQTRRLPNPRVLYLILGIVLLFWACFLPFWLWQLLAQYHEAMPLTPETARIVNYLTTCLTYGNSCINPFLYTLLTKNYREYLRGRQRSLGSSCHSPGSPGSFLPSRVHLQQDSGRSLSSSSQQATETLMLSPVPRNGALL
Outline: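 Fluorescent calcium signals were recorded at room temperature (23° C) by FLIPR. Stable rat U-II receptor CHO lines had been dye-loaded for 1 h at 37° C in pH 7.4 HBSS containing 20 mM HEPES, 0.1% BSA and 2.5 mM probenecid.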

[2] = target: T2, Human UII receptor, 6D9 human rhabdomyosarcoma cells (Homo sapiens, UniProt Q9UKP6); assay: Human UII Calcium Mobilization Assay; format: cell-based; settings: average value, FLIPR TETRA, read-out: Human UII Ca^+ Mobilization Average IC50
T2 construct: 6D9: isolated by dilution subcloning of RMS13 cells, ATCC® Number: CRL-2061; host or cells: 6D9 human rhabdomyosarcoma cells (subclone of RMS13)
T2 sequence (Q9UKP6 1-389): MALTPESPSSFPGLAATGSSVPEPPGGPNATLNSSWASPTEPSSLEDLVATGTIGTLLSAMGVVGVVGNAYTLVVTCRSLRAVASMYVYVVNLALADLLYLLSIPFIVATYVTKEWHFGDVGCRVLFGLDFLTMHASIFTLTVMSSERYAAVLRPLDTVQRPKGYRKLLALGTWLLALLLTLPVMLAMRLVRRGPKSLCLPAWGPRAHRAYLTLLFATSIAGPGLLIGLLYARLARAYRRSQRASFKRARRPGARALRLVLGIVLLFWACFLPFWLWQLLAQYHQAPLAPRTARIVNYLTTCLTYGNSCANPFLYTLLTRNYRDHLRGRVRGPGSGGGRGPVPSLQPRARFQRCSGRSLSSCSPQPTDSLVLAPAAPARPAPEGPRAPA
Method: 6D9 human rhabdomyosarcoma cells were seeded into tissue culture treated 384-well black-walled clear bottom plates (3712, Corning Incorporated, Corning, N.Y.) at 8,000 cells/well in 25 μL of culture medium, and maintained in an incubator (5% CO2 at 37° C.) for 22 hrs prior to the calcium mobilization assay. 25 μL of dye solution was added to the wells such that the final liquid volume before agonist/antagonist treatment was 50 μL for all assays. The cell plates were incubated at 37° C. for 45 minutes and the fluorescence intensity was measured on a Fluorometric Imaging Plate Reader (FLIPR^TETRA, Molecular Devices, Sunnyvale, Calif.).
Antagonist and agonist U-II were added at room temperature on the FLIPR^TETRA, and the fluorescence intensity before and after addition was measured over a period of 4 minutes. The dye incubation time and temperature as well as instrument setting was adjusted so the fluorescence intensity could be compared between plates on the same day. EC50 and IC50 were analyzed using GraphPad Prism 4 software (GraphPad Software Inc., San Diego, Calif.).
Materials and reagent Preparation: Human Rhabdomyosarcoma cells (6D9: isolated by dilution subcloning of RMS13 cells, ATCC® Number: CRL-2061, American Type Culture Collection ATCC, Manassas, Va.) was maintained in RPMI-1640 medium (30-2001, ATCC, Manassas, Va.) supplemented with 10% (v/v) Fetal Bovine Serum (SH30071.03, Hyclone, Logan, Utah).
Dye preparation: BD™ Calcium Assay Kit (80500-301, BD Biosciences, Rockville, Md.) was prepared according to the manufacture's instruction in 1× Hanks' balanced salt solution (HBSS, 21-023-CV, Mediatech, Inc. Herndon, Va.) containing 20 mM HEPES buffer (25-060-CI, Mediatech, Inc. Herndon, Va.). Final dye loading conditions included 1.25 mM probenecid (P36400, Invitrogen, Carlsbad, Calif.) and 0.01% FBS.
Urantide (PUT-3639-PI, Peptide International, Louisville, Ky.) was prepared in water at 5 mM. For assays, U-II agonist, U-II antagonist and urantide were diluted with HBSS/HEPES containing 0.01% FBS.
Test compounds were dissolved in DMSO at 10 mM concentration. The serial dilutions were carried out in HBSS/HEPES. The highest final DMSO concentration was at 0.1%.

[3] = target: T3, endogenous human UII receptor (Homo sapiens, UniProt Q9UKP6); assay: Human Radioligand Binding Assay ((^125I)-U-II binding to human skeletal muscle myoblasts)
T3 sequence (Q9UKP6 1-389): T2 sequence (Q9UKP6 1-389)

[4] = read-out: Human UII Average Binding Ki, average value, (^125I)-U-II binding to human skeletal muscle myoblasts (HSMM), 25° C., 3 h

IC50 [1] [nM] | IC50 [2] [nM] | Ki [3] [nM] | SMILES | Ki [3, 4] [nM]
49 | 520 | 99 | COc1ccc(C(CNC(=O)Cc2ccncc2)N2C(=O)c3cccc(N4CCN([C@H](C)c5ccccc5)CC4)c3C2=O)cc1OC (stereo partly drawn) [Cpd 102, N-(2-(3,4-dimethoxy-phenyl)-2-{1,3-dioxo-4-[4-(1R)-(1-phenyl-ethyl)-piperazin-1-yl]-1,3-dihydro-isoindol-2-yl}-ethyl)-2-pyridin-4-yl-acetamide] | 
34 | 750 | 150 | COc1ccc([C@@H](CCCNC(=O)c2cc(C)on2)N2C(=O)c3cccc(N4CCN([C@H](C)c5ccccc5)CC4)c3C2=O)cc1OC [Cpd 159, (R)-5-methyl-isoxazole-3-carboxylic acid (4-(3,4-dimethoxy-phenyl)-4-{1,3-dioxo-4-[4-(1R)-(1-phenyl-ethyl)-piperazin-1-yl]-1,3-dihydro-isoindol-2-yl}-butyl)-amide] | 
97 | 760 | 97 | COc1ccc(C(CCCNS(=O)(=O)c2ccccc2)N2C(=O)c3cccc(N4CCN([C@H](C)c5ccccc5)CC4)c3C2=O)cc1OC (stereo partly drawn) [Cpd 96, N-(4-(3,4-dimethoxy-phenyl)-4-{1,3-dioxo-4-[4-(1R)-(1-phenyl-ethyl)-piperazin-1-yl]-1,3-dihydro-isoindol-2-yl}-butyl)-benzenesulfonamide] | 
65 | 430 | 42 | COC(=O)c1sccc1S(=O)(=O)NCCCC(c1ccc(OC)c(OC)c1)N1C(=O)c2cccc(N3CCN([C@H](C)c4ccccc4)CC3)c2C1=O (stereo partly drawn) [Cpd 94, 3-(4-(3,4-dimethoxy-phenyl)-4-{1,3-dioxo-4-[4-(1R)-(1-phenyl-ethyl)-piperazin-1-yl]-1,3-dihydro-isoindol-2-yl}-butylsulfamoyl)-thiophene-2-carboxylic acid methyl ester] | 
19 | 630 | 120 | COc1ccc([C@@H](CCCNC(=O)c2nccn2C)N2C(=O)c3cccc(N4CCN([C@H](C)c5ccccc5)CC4)c3C2=O)cc1OC [Cpd 161, (R)-1-methyl-1H-imidazole-2-carboxylic acid (4-(3,4-dimethoxy-phenyl)-4-{1,3-dioxo-4-[4-(1R)-(1-phenyl-ethyl)-piperazin-1-yl]-1,3-dihydro-isoindol-2-yl}-butyl)-amide] | 
130 | 560 | 320 | COC(=O)c1ccc(S(=O)(=O)NCCCC(c2ccc(OC)c(OC)c2)N2C(=O)c3cccc(N4CCN([C@H](C)c5ccccc5)CC4)c3C2=O)o1 (stereo partly drawn) [Cpd 90, 5-(4-(3,4-dimethoxy-phenyl)-4-{1,3-dioxo-4-[4-(1R)-(1-phenyl-ethyl)-piperazin-1-yl]-1,3-dihydro-isoindol-2-yl}-butylsulfamoyl)-furan-2-carboxylic acid methyl ester] | 

SMILES | IC50 [1] [nM] | IC50 [2] [nM] | Ki [3] [nM] | Ki [3, 4] [nM]
COc1ccc([C@@H](CCCNS(=O)(=O)c2cn(C)c(C)n2)N2C(=O)c3cccc(N4CCN([C@H](C)c5ccccc5)CC4)c3C2=O)cc1OC [Cpd 140, (R)-1,2-dimethyl-1H-imidazole-4-sulfonic acid (4-(3,4-dimethoxy-phenyl)-4-{1,3-dioxo-4-[4-(1R)-(1-phenyl-ethyl)-piperazin-1-yl]-1,3-dihydro-isoindol-2-yl}-butyl)-amide] | 14 | 220 |  | 16
COc1ccc([C@@H](CCCNS(=O)(=O)c2cccs2)N2C(=O)c3cccc(N4CCN(C)CC4)c3C2=O)cc1OC [Cpd 169, (R)-thiophene-2-sulfonic acid {4-(3,4-dimethoxy-phenyl)-4-[4-(4-methyl-piperazin-1-yl)-1,3-dioxo-1,3-dihydro-isoindol-2-yl]-butyl}-amide] | 16 | 220 |  | 59
CCN1CCN(c2cccc3c2C(=O)N([C@H](CCCOCC(=O)O)c2ccc(OC)c(OC)c2)C3=O)CC1 [Cpd 218, (R)-{4-(3,4-dimethoxy-phenyl)-4-[4-(4-ethyl-piperazin-1-yl)-1,3-dioxo-1,3-dihydro-isoindol-2-yl]-butoxy}-acetic acid] | 240 | 2400 | > 300 | 
